System: chronic colitis provoked by trinitrobenzene sulphonic acid (TNBS)
Experiment: Rat model of chronic colitis provoked by TNBS over 14 days, treatment from Day 1
Type: in vivo
Conditions: for macroscopic Damage Score / reduction in colon weight / reduction in colonic MPO activity / reduction in colonic TNF-α levels / reduction in colonic lesion area (% of the total area measured): Day 14; for reduction in colon weight / reduction in colonic MPO activity / reduction in colonic TNF-α levels / reduction in colonic lesion area (% of the total area measured) / attenuation of TNBS-induced fall in body weight (% change of body weight at Day −1): vs CMC group; for attenuation of TNBS-induced fall in body weight (% change of body weight at Day −1): over 14 days
Description: In the chronic model of colitis, assessment of the colonic inflammation is made 14 days or longer, after the intracolonic challenge with TNBS (Boughton-Smith et al, 1988a, 1988b; Wallace et al, 1989; Rachmilewitz et al, 1989; Wallace and Keenan, 1990; Ameho et al, 1987; Sans et al, 1999; Sun et al, 2001; Maric et al, 2003; Moreels et al, 2004; Gonzalez et al, 2004). This model allows treatment with experimental agents to commence following the establishment of the colonic injury, typically 24 hours after the TNBS challenge (Galvez et al, 2000, Villegas, 2003, Gonzalez et al, 2004). The model should therefore identify the ability of the experimental compounds to accelerate the diminution of the inflammatory response and to promote healing of the colonic lesions. This model thus has relevance additional to the acute model, as the clinical correlate is the therapeutic intervention in patients with existing IBD not in remission or with flare-up, to reduce the crisis. This contrasts with the acute TNBS model where the compounds are administered one or two days prior to challenge, the clinical correlate being the use of prophylactic therapy to prevent flare-up and maintain remission in IBD patients.
In this current study, the low intracolonic challenge concentration of TNBS used in the acute studies was also used for the chronic study over a 14 day period. This concentration and timing was based on the findings from pilot studies where a range of concentrations of TNBS and treatment conditions were evaluated over a 14 day period. […].
The methods and protocol used were substantially similar to those in Example 39-40, with some differences described below.
TNBS Challenge. Male Wistar rats (average body weight, 210 g) were randomised into groups before commencement of the study. In all groups, including the non-challenged and non-treated absolute control group, food was withdrawn for 12 h before TNBS administration (i.e. overnight on Day −1), but the rats were allowed free access to drinking water.
On the morning of the day of challenge (Day 0, between 9.00 and 1 1.00 a.m.), the rats were transiently anaesthetised with ether and the TNBS solution (10 mg in 0.25 ml of 50% ethanol) was instilled approximately 6-8 cm into the colon using a soft plastic catheter inserted in the rat rectum. The rats were allowed to recover with free access to food and drinking water. At the end of the experiment, on the morning of Day 14, between 9.00 and 11.00), the colon was dissected, and the distal 8 cm photographed and immediately processed or stored appropriately for subsequent analyses.
The following primary parameters were measured in the study: macroscopic scoring of distal 8 cm of colon; myeloperoxidase levels in segments of distal 8 cm of colon; TNF-α levels in segments of distal 8 cm of colon.
In addition, the weight of the standard colonic segment was assessed as an indirect and non-specific marker of oedema. The body weight of the animals was also determined each evening of the study, starting on Day-1, and also on the morning of Day 14. The data is shown graphically as the % change from the weight on Day-1, prior to challenge.
Treatments. The TNBS challenged groups for study were: (a) Vehicle control 0.5% carboxy methyl cellulose (CMC) p.o., twice daily from Day; (b) CCI-7506 25 mg/kg, p.o., twice daily from Day 1 (50 mg/kg/day total); (c) CCI-7506 50 mg/kg, p.o., twice daily from Day 1 (100 mg/kg/day total); (d) CCI-7507 12.5 mg/kg, p.o., twice daily from Day 1 (25 mg/kg/day total); (e) CCI-7507 25 mg/kg, p.o., twice daily from Day 1(50 mg/kg/day total); […]; (g) Infliximab 3 mg/kg, single slow i.v. injection, on Day 1 and Day7.
The experimental compounds that were administered orally were given twice a day from Day 1, i.e. 24 h following TNBS administration, for the remainder of the 14 day experimental period. Infliximab was administered by slow i.v. injection of Day 1 and on Day 7. […]

## COc1ccc(-c2nc3ccccc3n2CCCCCB(O)O)cc1 [CCI-7507]
25 mg/kg/day p.o. from Day 1
  macroscopic Damage Score: reduced the damage score
  reduction in colon weight: significantly reduced the colonic weight of the standard segment at both doses
  reduction in colonic MPO activity: significant and dose-dependent fall in the elevated MPO activity at both dose levels
  reduction in colonic TNF-α levels: caused a significant reduction in the elevated levels of TNF-α
  reduction in colonic lesion area (% of the total area measured): statistically significant for both doses
25 mg/kg/day p.o. in divided doses from Day 1
  attenuation of TNBS-induced fall in body weight (% change of body weight at Day −1): significantly different from that in the CMC challenged group (P<0.05) on Days 2, 3, 4, 8, 9 and 10 post-challenge
50 mg/kg/day p.o. from Day 1
  macroscopic Damage Score: reduced the damage score
  reduction in colon weight: significantly reduced the colonic weight of the standard segment at both doses
  reduction in colonic MPO activity: significant and dose-dependent fall in the elevated MPO activity at both dose levels
  reduction in colonic TNF-α levels: caused a significant reduction in the elevated levels of TNF-α
  reduction in colonic lesion area (% of the total area measured): statistically significant for both doses
50 mg/kg/day p.o. in divided doses from Day 1
  attenuation of TNBS-induced fall in body weight (% change of body weight at Day −1): significantly different form the CMC group on all days from Day 2 to 10
